Results reported in PMC6001238, “Iterative Chemical Engineering of Vancomycin Leads to Novel Vancomycin Analogs With a High in Vitro Therapeutic Index” (Frontiers in Microbiology, 2018).
Values after ≈ are worked out from the molar mass of the structure shown.

What was measured:
[1] = system: E. faecalis VRE 29; assay: MIC, broth microdilution, vancomycin-resistant E. faecalis VRE 29 (VanA); assay type: cell-based, Enterococcus faecalis; details: for MIC: Enterococcus faecalis VRE 29 (vancomycin-resistant), read-out: MIC; for MIC-fold improvement vs. vancomycin: VRE 29, ratio of MIC of vancomycin and MIC of analogue
Method in brief: (§1)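 Read-out: lowest concentration inhibiting growth in broth microdilution, CLSI method. Water and broth-only wells acted as controls; in one case 10 μM vancomycin (final) was present with the compound.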

[2] = system: human T-lymphocyte (CEM) cells; assay: Cytostatic activity, CEM cell proliferation; assay type: cell-based; details: mean ± SD of three experiments; highest concentration tested 250 µM; 3 days; read-out: Toxicity (IC50) CEM
Method in brief: (§2)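 Test compounds, serially diluted, received an equal volume of cell suspension at 300,000–500,000 cells/mL. After 37°C incubation (2 days for L1210, 3 for CEM, 4 for HeLa), cells were enumerated by Coulter counting and 50%-inhibitory concentrations calculated per cell type.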

[3] = system: E. faecalis VRE 53; assay: MIC, broth microdilution, vancomycin-resistant E. faecalis VRE 53 (VanA); assay type: cell-based, Enterococcus faecalis; details: for MIC: Enterococcus faecalis VRE 53 (vancomycin-resistant), read-out: MIC; for MIC-fold improvement vs. vancomycin: VRE 53, ratio of MIC of vancomycin and MIC of analogue
Method in brief: as §1

[4] = system: Murine leukemia (L1210) cells; assay: Cytostatic activity, L1210 cell proliferation; assay type: cell-based; details: mean ± SD of three experiments; highest concentration tested 250 µM; 2 days; read-out: Toxicity (IC50) L1210
Method in brief: as §2

[5] = system: human cervix carcinoma (HeLa) cells; assay: Cytostatic activity, HeLa cell proliferation; assay type: cell-based; details: mean ± SD of three experiments; highest concentration tested 250 µM; 4 days; read-out: Toxicity (IC50) HeLa
Method in brief: as §2

[6] = system: S. aureus VSSA (ATCC 6538); assay: MIC, broth microdilution, vancomycin-sensitive S. aureus (VSSA/MSSA, ATCC 6538); assay type: cell-based, Staphylococcus aureus; details: for MIC: Staphylococcus aureus VSSA, read-out: MIC; for MIC-fold improvement vs. vancomycin: VSSA, ratio of MIC of vancomycin and MIC of analogue
Method in brief: as §1

[7] = system: E. faecalis VRE 6; assay: MIC, broth microdilution, vancomycin-resistant E. faecalis VRE 6 (VanA); assay type: cell-based, Enterococcus faecalis; details: for MIC: Enterococcus faecalis VRE 6 (vancomycin-resistant), read-out: MIC; for MIC-fold improvement vs. vancomycin: VRE 6, ratio of MIC of vancomycin and MIC of analogue
Method in brief: as §1

[8] = system: MRSA KS2; assay: MIC, broth microdilution, MRSA KS2; assay type: cell-based, Staphylococcus aureus; details: for MIC-fold improvement vs. vancomycin: MRSA KS2, ratio of MIC of vancomycin and MIC of analogue; for MIC: Staphylococcus aureus MRSA KS2, read-out: MIC
Method in brief: as §1

[9] = system: MRSA KS1; assay: MIC, broth microdilution, MRSA KS1; assay type: cell-based, Staphylococcus aureus; details: for MIC-fold improvement vs. vancomycin: MRSA KS1, ratio of MIC of vancomycin and MIC of analogue; for MIC: Staphylococcus aureus MRSA KS1, read-out: MIC
Method in brief: as §1

[10] = system: S. aureus VISA/HIP5827; assay: MIC, broth microdilution, vancomycin-intermediate S. aureus VISA HIP5827; assay type: cell-based, Staphylococcus aureus; details: for MIC: Staphylococcus aureus VISA/HIP5827, read-out: MIC; for MIC-fold improvement vs. vancomycin: VISA/HIP5827, ratio of MIC of vancomycin and MIC of analogue
Method in brief: as §1

[11] = system: E. faecalis VRE 37; assay: MIC, broth microdilution, vancomycin-resistant E. faecalis VRE 37 (VanA); assay type: cell-based, Enterococcus faecalis; details: for MIC: Enterococcus faecalis VRE 37 (vancomycin-resistant), read-out: MIC; for MIC-fold improvement vs. vancomycin: VRE 37, ratio of MIC of vancomycin and MIC of analogue
Method in brief: as §1

[12] = system: E. faecalis VSE 1; assay: MIC, broth microdilution, vancomycin-sensitive E. faecalis (VSE 1); assay type: cell-based, Enterococcus faecalis; details: for MIC: Enterococcus faecalis VSE 1 (vancomycin-sensitive), read-out: MIC; for MIC-fold improvement vs. vancomycin: VSE 1, ratio of MIC of vancomycin and MIC of analogue
Method in brief: as §1

[13] = system: MRSA KS89; assay: MIC, broth microdilution, MRSA KS89; assay type: cell-based, Staphylococcus aureus; details: for MIC-fold improvement vs. vancomycin: MRSA KS8, ratio of MIC of vancomycin and MIC of analogue; for MIC: Staphylococcus aureus MRSA KS8, read-out: MIC
Method in brief: as §1

[14] = system: MRSA KS6; assay: MIC, broth microdilution, MRSA KS6; assay type: cell-based, Staphylococcus aureus; details: for MIC-fold improvement vs. vancomycin: MRSA KS6, ratio of MIC of vancomycin and MIC of analogue; for MIC: Staphylococcus aureus MRSA KS6, read-out: MIC
Method in brief: as §1

[15] = system: L1210, CEM and HeLa cell lines; assay: Cytostatic activity, average or summary over L1210, CEM and HeLa; assay type: cell-based; details: average of L1210, CEM and HeLa; read-out: Toxicity (IC50) Average
Method in brief: as §2

[16] = system: S. aureus VRSA; assay: MIC, broth microdilution, vancomycin-resistant S. aureus (VRSA); assay type: cell-based, Staphylococcus aureus; details: for MIC: Staphylococcus aureus VRSA, read-out: MIC; for MIC-fold improvement vs. vancomycin: VRSA, ratio of MIC of vancomycin and MIC of analogue
Method in brief: as §1

Row | SMILES | MIC [1] [µM] | MIC-fold improvement vs. vancomycin [1] | MIC [3] [µM] | MIC-fold improvement vs. vancomycin [3] | MIC [6] [µM] | MIC-fold improvement vs. vancomycin [6] | MIC [7] [µM] | MIC-fold improvement vs. vancomycin [7] | MIC-fold improvement vs. vancomycin [8] | MIC [8] [µM] | MIC-fold improvement vs. vancomycin [9] | MIC [9] [µM] | MIC [10] [µM] | MIC-fold improvement vs. vancomycin [10] | MIC [11] [µM] | MIC [12] [µM] | MIC-fold improvement vs. vancomycin [12] | IC50 [2] [µM] | IC50 [4] [µM] | IC50 [5] [µM] | further results
1 | CN[C@H](CC(C)C)C(=O)N[C@H]1C(=O)N[C@@H](CC(N)=O)C(=O)N[C@H]2C(=O)N[C@H]3C(=O)N[C@H](C(=O)N[C@H](C(=O)NCCCNC(=O)c4ccc5ccccc5c4)c4cc(O)cc(O)c4-c4cc3ccc4O)[C@H](O)c3ccc(c(Cl)c3)Oc3cc2cc(c3O[C@@H]2O[C@H](CO)[C@@H](O)[C@H](O)[C@H]2O[C@H]2C[C@](C)(N)[C@H](O)[C@H](C)O2)Oc2ccc(cc2Cl)[C@H]1O [Vanc-28] | 6.25 (≈ 10.4 µg/mL) | 64 | 25 (≈ 41.5 µg/mL) | 16 | 0.39 (≈ 0.647 µg/mL) | 2 | 3.13 (≈ 5.19 µg/mL) | 64 | 4 | 0.20 (≈ 0.332 µg/mL) | 2 | 0.39 (≈ 0.647 µg/mL) | 0.39 (≈ 0.647 µg/mL) | 16 | 12.5 (≈ 20.7 µg/mL) | 0.20 (≈ 0.332 µg/mL) | 8 | 229 ± 12 | > 250 | 68 ± 16 | MIC-fold improvement vs. vancomycin [13]: 2; MIC [13]: 0.39 µM (≈ 0.647 µg/mL); MIC-fold improvement vs. vancomycin [14]: 4; MIC [14]: 0.20 µM (≈ 0.332 µg/mL); IC50 [15]: 182 µM; MIC [16]: 3.13 µM (≈ 5.19 µg/mL); MIC-fold improvement vs. vancomycin [16]: 32
2 | CNC(CC(C)C)C(=O)NC1C(=O)NC(CC(N)=O)C(=O)NC2C(=O)NC3C(=O)NC(C(=O)NC(C(=O)NCCCNC(=O)c4ccc5cc(O)ccc5c4)c4cc(O)cc(O)c4-c4cc3ccc4O)C(O)c3ccc(c(Cl)c3)Oc3cc2cc(c3OC2OC(CO)C(O)C(O)C2OC2CC(C)(N)C(O)C(C)O2)Oc2ccc(cc2Cl)C1O (stereo not shown) [Vanc-30] | 12.5 (≈ 20.9 µg/mL) | 32 | 25 (≈ 41.9 µg/mL) | 16 | 0.39 (≈ 0.653 µg/mL) | 2 | 3.13 (≈ 5.24 µg/mL) | 64 | 2 | 0.39 (≈ 0.653 µg/mL) | 2 | 0.39 (≈ 0.653 µg/mL) | 0.39 (≈ 0.653 µg/mL) | 16 | 25 (≈ 41.9 µg/mL) | 0.39 (≈ 0.653 µg/mL) | 4 | > 250 | > 250 | 45 ± 25 | MIC-fold improvement vs. vancomycin [11]: 16; MIC-fold improvement vs. vancomycin [13]: 2; MIC [13]: 0.39 µM (≈ 0.653 µg/mL); MIC-fold improvement vs. vancomycin [14]: 2; MIC [14]: 0.39 µM (≈ 0.653 µg/mL); IC50 [15]: 182 µM; MIC [16]: 3.13 µM (≈ 5.24 µg/mL); MIC-fold improvement vs. vancomycin [16]: 32

Further lines, with some results ahead:

Row | MIC [1] [µM] | MIC-fold improvement vs. vancomycin [1] | MIC [3] [µM] | MIC-fold improvement vs. vancomycin [3] | MIC [6] [µM] | MIC-fold improvement vs. vancomycin [6] | MIC [7] [µM] | MIC-fold improvement vs. vancomycin [7] | MIC-fold improvement vs. vancomycin [8] | MIC [8] [µM] | MIC-fold improvement vs. vancomycin [9] | MIC [9] [µM] | MIC [10] [µM] | MIC-fold improvement vs. vancomycin [10] | MIC [11] [µM] | MIC [12] [µM] | MIC-fold improvement vs. vancomycin [12] | SMILES | IC50 [2] [µM] | IC50 [4] [µM] | IC50 [5] [µM] | further results
3 | 6.25 (≈ 10.5 µg/mL) | 64 | 6.25 (≈ 10.5 µg/mL) | 64 | 0.20 (≈ 0.336 µg/mL) | 4 | 6.25 (≈ 10.5 µg/mL) | 32 | 4 | 0.20 (≈ 0.336 µg/mL) | >8 | <0.10 | 0.39 (≈ 0.655 µg/mL) | 16 | 6.25 (≈ 10.5 µg/mL) | 0.39 (≈ 0.655 µg/mL) | 4 | CCCCCc1ccc(C(=O)NCCCNC(=O)C2NC(=O)C3NC(=O)C(NC(=O)C4NC(=O)C(CC(N)=O)NC(=O)C(NC(=O)C(CC(C)C)NC)C(O)c5ccc(c(Cl)c5)Oc5cc4cc(c5OC4OC(CO)C(O)C(O)C4OC4CC(C)(N)C(O)C(C)O4)Oc4ccc(cc4Cl)C3O)c3ccc(O)c(c3)-c3c(O)cc(O)cc32)cc1 (stereo not shown) [Vanc-49] | 36 ± 8 | 63 ± 8 | 99 ± 1 | MIC-fold improvement vs. vancomycin [11]: 64; MIC-fold improvement vs. vancomycin [13]: 4; MIC [13]: 0.20 µM (≈ 0.336 µg/mL); MIC-fold improvement vs. vancomycin [14]: 4; MIC [14]: 0.20 µM (≈ 0.336 µg/mL); IC50 [15]: 66 µM; MIC [16]: 0.39 µM (≈ 0.655 µg/mL); MIC-fold improvement vs. vancomycin [16]: 256
4 | 25 (≈ 42.5 µg/mL) | 16 | 50 (≈ 85 µg/mL) | 8 | 0.78 (≈ 1.33 µg/mL) | 1 | 6.25 (≈ 10.6 µg/mL) | 32 | 2 | 0.39 (≈ 0.663 µg/mL) | 2 | 0.39 (≈ 0.663 µg/mL) | 1.56 (≈ 2.65 µg/mL) | 4 | 25 (≈ 42.5 µg/mL) | 0.78 (≈ 1.33 µg/mL) | 2 | CN[C@H](CC(C)C)C(=O)N[C@H]1C(=O)N[C@@H](CC(N)=O)C(=O)N[C@H]2C(=O)N[C@H]3C(=O)N[C@H](C(=O)N[C@H](C(=O)NCCNC(=O)CC(c4ccccc4)c4ccccc4)c4cc(O)cc(O)c4-c4cc3ccc4O)[C@H](O)c3ccc(c(Cl)c3)Oc3cc2cc(c3O[C@@H]2O[C@H](CO)[C@@H](O)[C@H](O)[C@H]2O[C@H]2C[C@](C)(N)[C@H](O)[C@H](C)O2)Oc2ccc(cc2Cl)[C@H]1O [Vanc-47] | 240 ± 4 | ≥ 250 | 106 ± 14 | MIC-fold improvement vs. vancomycin [11]: 16; MIC-fold improvement vs. vancomycin [13]: 2; MIC [13]: 0.39 µM (≈ 0.663 µg/mL); MIC-fold improvement vs. vancomycin [14]: 0.25; MIC [14]: 3.13 µM (≈ 5.32 µg/mL); IC50 [15]: 199 µM; MIC [16]: 3.13 µM (≈ 5.32 µg/mL); MIC-fold improvement vs. vancomycin [16]: 32
5 | 3.13 (≈ 5.33 µg/mL) | 128 | 12.5 (≈ 21.3 µg/mL) | 32 | 0.39 (≈ 0.664 µg/mL) | 2 | 1.56 (≈ 2.65 µg/mL) | 128 | 4 | 0.20 (≈ 0.34 µg/mL) | 4 | 0.20 (≈ 0.34 µg/mL) | 0.78 (≈ 1.33 µg/mL) | 8 | 6.25 (≈ 10.6 µg/mL) | ≤0.05 | ≥32 | CCOc1ccc(-c2ccc(NC(=O)CNC(=O)C3NC(=O)C4NC(=O)C(NC(=O)C5NC(=O)C(CC(N)=O)NC(=O)C(NC(=O)C(CC(C)C)NC)C(O)c6ccc(c(Cl)c6)Oc6cc5cc(c6OC5OC(CO)C(O)C(O)C5OC5CC(C)(N)C(O)C(C)O5)Oc5ccc(cc5Cl)C4O)c4ccc(O)c(c4)-c4c(O)cc(O)cc43)cc2)cc1 (stereo not shown) [Vanc-86] | 1 ± 0.2 | 3 ± 2.3 | 9.8 ± 5.8 | MIC-fold improvement vs. vancomycin [11]: 64; MIC-fold improvement vs. vancomycin [13]: 2; MIC [13]: 0.39 µM (≈ 0.664 µg/mL); MIC-fold improvement vs. vancomycin [14]: 2; MIC [14]: 0.39 µM (≈ 0.664 µg/mL); IC50 [15]: 5 µM; MIC [16]: 1.56 µM (≈ 2.65 µg/mL); MIC-fold improvement vs. vancomycin [16]: 64
